Measured values reported in paper PMC2767189 (Clinical Pharmacology and Therapeutics, 2008).
Values joined by “and” are separate entries in the source; they are usually repeats but may differ in a detail not shown here. Equal values may be shown once. Read-outs that look alike come from different tables or passages of the source.

Tests used:
clinical = conditions: human, plasma, oral, 300 mg, 300 mg twice daily; for AUC: ABC AUC; for Cmax: ABC Cmax; for Vd/F: ABC Vd/F (volume of distribution); for half-life: ABC half-life
[1] = 300 mg twice daily
[2] = cited from earlier work
[3] = Intracellular triphosphate; type: in vivo, human; conditions: median ratio, 4 h after dose vs predose; all subjects
[4] = molecular target: HIV-1 reverse transcriptase; conditions: cited from earlier work
[5] = cited from earlier work; remark: listed apart in the source

Nc1nc(NC2CC2)c2ncn([C@H]3C=C[C@@H](CO)C3)c2n1 [ABC, abacavir]
AUC (clinical; mean (SD), <18 years (n = 15)): 7350 ng·h/mL | AUC (clinical; mean (SD), Total (n = 30)): 7480 ng·h/mL | AUC (clinical; mean (SD), ≥18 years (n = 15)): 7610 ng·h/mL | AUC (clinical; median, <18 years (n = 15)): 7010 ng·h/mL | AUC (clinical; median, Total (n = 30)): 6720 ng·h/mL | AUC (clinical; median, ≥18 years (n = 15)): 6590 ng·h/mL | Cmax (clinical; mean (SD), <18 years (n = 15)): 2790 ng/mL | Cmax (clinical; mean (SD), Total (n = 30)): 2860 ng/mL | Cmax (clinical; mean (SD), ≥18 years (n = 15)): 2940 ng/mL | Cmax (clinical; median, <18 years (n = 15)): 2580 ng/mL | Cmax (clinical; median, Total (n = 30)): 2620 ng/mL | Cmax (clinical; median, ≥18 years (n = 15)): 2740 ng/mL | Vd/F (clinical; mean (SD), <18 years (n = 15)): 82.9 L and 1.35 L/kg | Vd/F (clinical; mean (SD), Total (n = 30)): 77.8 L and 1.19 L/kg | Vd/F (clinical; mean (SD), ≥18 years (n = 15)): 72.8 L and 1.04 L/kg | Vd/F (clinical; median, <18 years (n = 15)): 67.1 L and 0.9 L/kg | Vd/F (clinical; median, Total (n = 30)): 71.5 L and 1.05 L/kg | Vd/F (clinical; median, ≥18 years (n = 15)): 73.5 L and 1.1 L/kg | half-life (clinical; mean (SD), <18 years (n = 15)): 1.23 h | half-life (clinical; mean (SD), Total (n = 30)): 1.19 h | half-life (clinical; mean (SD), ≥18 years (n = 15)): 1.14 h | half-life (clinical; median, <18 years (n = 15)): 1.22 h | half-life (clinical; median, Total (n = 30)): 1.23 h | half-life (clinical; median, ≥18 years (n = 15)): 1.34 h | ABC CL/F (apparent oral clearance) ([1]; mean (SD), <18 years (n = 15)): 47.47 (19.52) l/h | ABC CL/F adjusted for body surface area ([1]; mean (SD), <18 years (n = 15)): 481.60 (192.62) ml/min/m^2 | ABC CL/F adjusted for weight ([1]; mean (SD), <18 years (n = 15)): 13.03 (5.31) ml/min/kg | ABC CL/F (apparent oral clearance) ([1]; mean (SD), Total (n = 30)): 45.44 (16.87) l/h | ABC CL/F adjusted for body surface area ([1]; mean (SD), Total (n = 30)): 437.77 (168.51) ml/min/m^2 | ABC CL/F adjusted for weight ([1]; mean (SD), Total (n = 30)): 11.73 (4.84) ml/min/kg | ABC CL/F (apparent oral clearance) ([1]; mean (SD), ≥18 years (n = 15)): 43.40 (14.13) l/h | ABC CL/F adjusted for body surface area ([1]; mean (SD), ≥18 years (n = 15)): 393.93 (132.66) ml/min/m^2 | ABC CL/F (apparent oral clearance) ([1]; median, <18 years (n = 15)): 42.80 L/h | ABC CL/F adjusted for body surface area ([1]; median, <18 years (n = 15)): 382.00 ml/min/m^2 | ABC CL/F (apparent oral clearance) ([1]; median, Total (n = 30)): 44.70 L/h | ABC CL/F adjusted for body surface area ([1]; median, Total (n = 30)): 390.50 ml/min/m^2 | ABC CL/F (apparent oral clearance) ([1]; median, ≥18 years (n = 15)): 45.50 L/h | ABC CL/F adjusted for body surface area ([1]; median, ≥18 years (n = 15)): 399.00 ml/min/m^2 | observed clearance seen in adults (reference value for hypothesis test on AUC) ([2]; adults, reference not printed at the place): 6000 ng·h/mL | abacavir steady-state AUC ([2]; older adults, 300 mg twice daily (~4 mg/kg)): 5000 to 6000 ng·h/mL | abacavir weight-adjusted apparent oral clearance ([2]; translated from 0.86 l/min for a 70-kg adult, ref 12 (McDowell et al.)): 12.3 mL/min/kg

Nc1nc(=O)c2ncn([C@H]3C=C[C@@H](COP(=O)(O)OP(=O)(O)OP(=O)(O)O)C3)c2[nH]1 [Carbovir-TP, carbovir-triphosphate]
C4/C0 ratio of intracellular TP concentrations [3]: 1.89 and 1.9 | carbovir-TP reverse transcriptase Ki expressed as intracellular amount ([4]; equivalent of 21 nmol/l): ~ 10 fmol/10^6 cells | Ki ([4]; read-out: carbovir-TP reverse transcriptase Ki, ex vitro): 0.021 µM | intracellular carbovir-TP concentrations ([5]; range reported from previous studies): 4-290 fmol/10^6 cells

Nc1ccn([C@@H]2CS[C@H](COP(=O)(O)OP(=O)(O)OP(=O)(O)O)O2)c(=O)n1 [Lamivudine-TP, lamivudine triphosphate]
C4/C0 ratio of intracellular TP concentrations [3]: 1.31 and 1.3 | intracellular lamivudine-TP average concentrations ([5]; range of averages in previous studies): 1.7-8.6 pmol/10^6 cells

Cc1cn([C@H]2C[C@H](N=[N+]=[N-])[C@@H](CO[P@](=O)(O)O[P@](=O)(O)OP(=O)(O)O)O2)c(=O)[nH]c1=O [Zidovudine-TP, zidovudine triphosphate]
C4/C0 ratio of intracellular TP concentrations [3]: 1.95 | intracellular zidovudine-TP concentrations ([5]; range seen in previous studies): 6.3-58 fmol/10^6 cells
